Experimental data published in US8933233B2, “1,3,4-oxadiazole and 1,3,4-thiadiazole β-lactamase inhibitors” (priority 2012, dated 2015).
Counter-ions that a name gives are not always drawn.

What follows are molecules tested on bacterial strains that express the class D cephalosporinase OXA-15 (assay: Synergy MIC / standard BLI potentiation MIC assay, strains expressing OXA-15). Settings: in presence of a β-lactam; comparator Avibactam (CCC).
Assay type: cell-based, E. coli
Protocol: Unless otherwise indicated, the activity of the BLI compounds can be described by the MIC value obtained from a Synergy MIC assay or a BLI potentiation assay (e.g as described herein), both of which are run in the presence of a β-lactam.
The experimental protocol was performed according to Clinical and Laboratory Standards Institute (CLSI) guidelines with modifications as described below (CLSI guidelines can be derived from the CLSI document M07-A9 published in January 2012: “Methods for Dilution Antimicrobial Susceptibility Tests for Bacteria That Grow Aerobically; Approved Standard-Ninth Edition”).
To prepare for MIC testing, frozen glycerol stocks of clinical isolates (Klebsiella pneumoniae, Eschericia coli, Enterobacter spp, Citrobacter spp, or Pseudomonas aeruginosa) were used to streak for isolated colonies on rich, non-selective, tryptic soy agar containing 5% sheep's blood (TSAB). Frozen glycerol stocks of laboratory engineered, isogenic E. coli strains, which contain cloned β-lactamase expressing plasmids were used to streak for isolated colonies on rich, selective LB agar supplemented with 25 μg/mL tetracycline to maintain the plasmid. All strains were incubated at 37° C. for 18-24 hrs.
On the day of testing, primary cultures were started by scraping off 5-10 colonies from the TSAB plates containing clinical strains or the tetracycline supplemented LB plates containing engineered strains. The clinical strain material was suspended in ˜5 mL of cation adjusted Mueller Hinton Broth (CAMHB) in 14 mL culture tubes. The engineered strain material was suspended in CAMHB (supplemented with 25 μg/mL tetracycline) in 14 mL culture tubes. All strains were incubated at 37° C. with aeration (200 rpm) for ˜2 hrs until the optical density at 600 nm (OD600) was ≧0.1.
The two compound components of the assay were each diluted in CAMHB and added to the 96-well broth microdilution assay plates. 50 μL of the β-lactam was added to each well of the assay plate in 2-fold dilutions with final concentrations ranging from 128 to 0.13 μg/mL. 25 μL of the BLI compound was added to all wells in the broth microdilution plates at a final concentration of 4 μg/mL. Inoculum cultures were prepared by standardizing the primary cultures to OD600=0.1 and then adding 20 μL of the adjusted primary culture per 1 mL CAMHB for clinical strains or CAMHB (supplemented with tetracycline at 100 μg/mL) for engineered strains, so that the final inoculum density was ˜10^5 colony forming units per milliliter. Diluted inoculum cultures were used to inoculate 25 μL per well in 96-well broth microdilution assay plates. The final volume of each well was 100 μL and contained a β-lactam at different concentrations, a BLIcompound at 4 μg/mL concentration, the bacterial culture at an OD600 of approximately 0.001 and when necessary tetracycline at 25 μg/mL.
Plates were incubated for 18-20 hours at 37° C. with aeration (200 rpm). Following incubation, growth was confirmed visually placing plates over a viewing apparatus (stand with a mirror underneath) and then OD600 was measured using a SpectraMax 340PC384 plate reader (Molecular Devices, Sunnyvale, Calif.). Growth was defined as turbidity that could be detected with the naked eye or achieving minimum OD600 of 0.1. MIC values were defined as the lowest concentration producing no visible turbidity.
The synergy MIC (sMIC) assay determines the concentration of the BLI required to potentiate the activity of a fixed concentration of a β-lactam antibiotic against β-lactamase producing bacterial strains. The experimental protocol was performed according to Clinical and Laboratory Standards Institute (CLSI) guidelines with modifications as described below (CLSI guidelines can be derived from the CLSI document M07-A9 published in January 2012: “Methods for Dilution Antimicrobial Susceptibility Tests for Bacteria That Grow Aerobically; Approved Standard-Ninth Edition”). […]
For `N[C@H]1C[C@H](NCc2nnc([C@@H]3CC[C@@H]4CN3C(=O)N4OS(=O)(=O)O)o2)C1` [Compound 757, (2S,5R)-2-(5-((((1r,3S)-3-aminocyclobutyl)amino)methyl)-1,3,4-oxadiazol-2-yl)-7-oxo-1,6-diazabicyclo[3.2.1]octan-6-yl hydrogen sulfate], the “activity against bacterial strains that express OXA-15, compared with Avibactam” value (from here on “activity … compared with Avibactam”) was “more active than Avibactam”.
For `O=C1N2C[C@@H](CC[C@H]2c2nnc([C@@H]3CNCCN3)o2)N1OS(=O)(=O)O` [Compound 778, (2S,5R)-7-oxo-2-(5-((S)-piperazin-2-yl)-1,3,4-oxadiazol-2-yl)-1,6-diazabicyclo[3.2.1]octan-6-yl hydrogen sulfate], the “activity … compared with Avibactam” value was “more active than Avibactam”.
For `O=C1N2C[C@@H](CC[C@H]2c2nnc(CNC3CCNCC3)o2)N1OS(=O)(=O)O` [Compound 769, (2S,5R)-7-oxo-2-(5-((piperidin-4-ylamino)methyl)-1,3,4-oxadiazol-2-yl)-1,6-diazabicyclo[3.2.1]octan-6-yl hydrogen sulfate], the “activity … compared with Avibactam” value was “more active than Avibactam”.
In the case of `NCC(O)c1nnc([C@@H]2CC[C@@H]3CN2C(=O)N3OS(=O)(=O)O)o1` (stereo partly drawn) [Compound 715, (2S,5R)-2-(5-(2-amino-1-hydroxyethyl)-1,3,4-oxadiazol-2-yl)-7-oxo-1,6-diazabicyclo[3.2.1]octan-6-yl hydrogen sulfate], the “activity … compared with Avibactam” value is reported as “more active than Avibactam”.
For `NCC(N)c1nnc([C@@H]2CC[C@@H]3CN2C(=O)N3OS(=O)(=O)O)o1` (stereo partly drawn) [Compound 717, (2S,5R)-2-(5-(1,2-diaminoethyl)-1,3,4-oxadiazol-2-yl)-7-oxo-1,6-diazabicyclo[3.2.1]octan-6-yl hydrogen sulfate], the “activity … compared with Avibactam” value was “more active than Avibactam”.
For `N[C@H]1CC[C@H](c2nnc([C@@H]3CC[C@@H]4CN3C(=O)N4OS(=O)(=O)O)o2)CC1` [Compound 781, (2S,5R)-2-(5-((1r,4S)-4-aminocyclohexyl)-1,3,4-oxadiazol-2-yl)-7-oxo-1,6-diazabicyclo[3.2.1]octan-6-yl hydrogen sulfate], the “activity … compared with Avibactam” value was “more active than Avibactam”.
In the case of `NCC(O)Cc1nnc([C@@H]2CC[C@@H]3CN2C(=O)N3OS(=O)(=O)O)o1` (stereo partly drawn) [Compound 733, (2S,5R)-2-(5-(3-amino-2-hydroxypropyl)-1,3,4-oxadiazol-2-yl)-7-oxo-1,6-diazabicyclo[3.2.1]octan-6-yl hydrogen sulfate], the “activity … compared with Avibactam” value is reported as “more active than Avibactam”.
`NC1CCN(c2nnc([C@@H]3CC[C@@H]4CN3C(=O)N4OS(=O)(=O)O)o2)CC1` [Compound 773, (2S,5R)-2-(5-(4-aminopiperidin-1-yl)-1,3,4-oxadiazol-2-yl)-7-oxo-1,6-diazabicyclo[3.2.1]octan-6-yl hydrogen sulfate] was tested, and the “activity … compared with Avibactam” value was “more active than Avibactam”.
With `Nc1nnc([C@@H]2CC[C@@H]3CN2C(=O)N3OS(=O)(=O)O)o1` [Compound 707, (2S,5R)-2-(5-amino-1,3,4-oxadiazol-2-yl)-7-oxo-1,6-diazabicyclo[3.2.1]octan-6-yl hydrogen sulfate] the “activity … compared with Avibactam” value was “more active than Avibactam”.
`O=C1N2C[C@@H](CC[C@H]2c2nnc(CCCN3CCNCC3)o2)N1OS(=O)(=O)O` [Compound 792, (2S,5R)-7-oxo-2-(5-(3-(piperazin-1-yl)propyl)-1,3,4-oxadiazol-2-yl)-1,6-diazabicyclo[3.2.1]octan-6-yl hydrogen sulfate] was tested, and the “activity … compared with Avibactam” value was “more active than Avibactam”.
`O=C1N2C[C@@H](CC[C@H]2c2nnc(N3CCNCC3)o2)N1OS(=O)(=O)O` [Compound 713, (2S,5R)-7-oxo-2-(5-(piperazin-1-yl)-1,3,4-oxadiazol-2-yl)-1,6-diazabicyclo[3.2.1]octan-6-yl hydrogen sulfate] was tested, and the “activity … compared with Avibactam” value was “more active than Avibactam”.
In the case of `O=C1N2C[C@@H](CC[C@H]2c2nnc(CC3CNC3)o2)N1OS(=O)(=O)O` [Compound 725, (2S,5R)-2-(5-(azetidin-3-ylmethyl)-1,3,4-oxadiazol-2-yl)-7-oxo-1,6-diazabicyclo[3.2.1]octan-6-yl hydrogen sulfate], the “activity … compared with Avibactam” value is reported as “more active than Avibactam”.
`NCCNCCc1nnc([C@@H]2CC[C@@H]3CN2C(=O)N3OS(=O)(=O)O)o1` [Compound 716, (2S,5R)-2-(5-(2-((2-aminoethyl)amino)ethyl)-1,3,4-oxadiazol-2-yl)-7-oxo-1,6-diazabicyclo[3.2.1]octan-6-yl hydrogen sulfate] was tested, and the “activity … compared with Avibactam” value was “more active than Avibactam”.
In the case of `O=C1N2C[C@@H](CC[C@H]2c2nnc(C3CCNCC3)s2)N1OS(=O)(=O)O` [Compound 719, (2S,5R)-7-oxo-2-(5-(piperidin-4-yl)-1,3,4-thiadiazol-2-yl)-1,6-diazabicyclo[3.2.1]octan-6-yl hydrogen sulfate], the “activity … compared with Avibactam” value is reported as “more active than Avibactam”.
In the case of `N=C(N)N1CCC(c2nnc([C@@H]3CC[C@@H]4CN3C(=O)N4OS(=O)(=O)O)o2)CC1` [Compound 712, (2S,5R)-2-(5-(1-carbamimidoylpiperidin-4-yl)-1,3,4-oxadiazol-2-yl)-7-oxo-1,6-diazabicyclo[3.2.1]octan-6-yl hydrogen sulfate], the “activity … compared with Avibactam” value is reported as “more active than Avibactam”.
In the case of `N[C@H]1CC[C@@H](c2nnc([C@@H]3CC[C@@H]4CN3C(=O)N4OS(=O)(=O)O)o2)CC1` [Compound 780, (2S,5R)-2-(5-((1s,4R)-4-aminocyclohexyl)-1,3,4-oxadiazol-2-yl)-7-oxo-1,6-diazabicyclo[3.2.1]octan-6-yl hydrogen sulfate], the “activity … compared with Avibactam” value is reported as “more active than Avibactam”.
In the case of `N=C(N)NCc1nnc([C@@H]2CC[C@@H]3CN2C(=O)N3OS(=O)(=O)O)o1` [Compound 704, (2S,5R)-2-(5-(guanidinomethyl)-1,3,4-oxadiazol-2-yl)-7-oxo-1,6-diazabicyclo[3.2.1]octan-6-yl hydrogen sulfate], the “activity … compared with Avibactam” value is reported as “more active than Avibactam”.
`O=C1N2C[C@@H](CC[C@H]2c2nnc(N3CCNCC3)s2)N1OS(=O)(=O)O` [Compound 797, (2S,5R)-7-oxo-2-(5-(piperazin-1-yl)-1,3,4-thiadiazol-2-yl)-1,6-diazabicyclo[3.2.1]octan-6-yl hydrogen sulfate] was tested, and the “activity … compared with Avibactam” value was “more active than Avibactam”.
`N=C(N)N[C@H]1C[C@H](c2nnc([C@@H]3CC[C@@H]4CN3C(=O)N4OS(=O)(=O)O)o2)C1` [Compound 748, (2S,5R)-2-(5-((1r,3S)-3-guanidinocyclobutyl)-1,3,4-oxadiazol-2-yl)-7-oxo-1,6-diazabicyclo[3.2.1]octan-6-yl hydrogen sulfate] was tested, and the “activity … compared with Avibactam” value was “more active than Avibactam”.
In the case of `N=C(N)NCCCc1nnc([C@@H]2CC[C@@H]3CN2C(=O)N3OS(=O)(=O)O)o1` [Compound 714, (2S,5R)-2-(5-(3-guanidinopropyl)-1,3,4-oxadiazol-2-yl)-7-oxo-1,6-diazabicyclo[3.2.1]octan-6-yl hydrogen sulfate], the “activity … compared with Avibactam” value is reported as “more active than Avibactam”.
